Reference: patent US11980596B2 (priority 2017, dated 2024)

Assays:
[1] = test system: elderly subjects with TRD; type: in vivo, human; conditions: each dosing day
Text: The Modified Observer's Assessment of Alertness/Sedation (MOAA/S) was used to measure treatment-emergent sedation with correlation to levels of sedation defined by the American Society of Anesthesiologists (ASA) continuum. The MOAA/S scores range from 0 (No response to painful stimulus; corresponds to ASA continuum for general anesthesia) to 5 (Readily responds to name spoken in normal tone [awake]; corresponds to ASA continuum for minimal sedation). The proportion of subjects with sedation was <4% for the esketamine group for each dosing day.

[2] = test system: subjects with MDD at imminent risk for suicide; experiment: MADRS total score, sustained response (Study […]2001); type: in vivo, human
Text: Primary efficacy variable/Primary Time point: Change from baseline (Day 1, predose) to Day 1, 4-hours postdose in MADRS total score. The MADRS consists of 10 items that cover all of the core depressive symptoms, with each item scoring from 0 (item is not present or is normal) to 6 (severe or continuous presence of the symptom). A higher score represents a more severe condition.
The primary efficacy endpoint is the change in MADRS total score from baseline to Day 1: 4-hours postdose. MADRS total scores range from 0 to 60. […] As this is a phase 2a proof-of-concept study, statistical significance is based on a two-sided alpha level of 0.20. All p-values presented in this document are two-sided.
Sustained response is defined as at least 50% reduction from baseline in MADRS total score with onset on Day 1: 4 hours postdose that is maintained through the end of the double-blind phase (Day 25). Four subjects in the esketamine 84 mg group and 2 subjects in the placebo group had sustained response throughout the double-blind phase.

[3] = 14-day; 54 mg/day
Experimental: This study includes a single dose and 14-day repeated dose neurotoxicity studies with intranasally administered esketamine in female rats 12 to 14 weeks of age. These studies were conducted to investigate whether single or repeated intranasal administrations of esketamine induced neurodegenerative changes in the rat brain. The study results were used to estimate an esketamine exposure-based safety margin compared with the maximum dose of esketamine administered intranasally to depressed adult patients in clinical trials.
Each group of main study animals consisted of 12 female rats. Four satellite animals were added to the esketamine HCl-dosed groups of main study animals for TK purposes. The plasma exposure to esketamine was measured in these animals on the first and the last day of dosing at various time points up to and including 24 hours after the first instillation.

patients with TRD = experiment: Sedation by MOAA/s in SPRAVATO clinical trials (label); type: in vivo, human; conditions: after dosing
Experimental: In clinical trials, 49% to 61% of SPRAVATO-treated patients developed sedation based on the Modified Observer's Alertness/Sedation scale (MOAA/s) [see Adverse Reactions (6.1)], and 0.3% of SPRAVATO-treated patients experienced loss of consciousness (MOAA/s score of 0).
Sedation was evaluated by adverse event reports and using the Modified Observer's Alertness/Sedation scale (MOAA/s). In the MOAA/s scale, 5 means “responds readily to name spoken in normal tone” and 0 means “no response after painful trapezius squeeze.” Any decrease in MOAA/s from pre-dose is considered to indicate presence of sedation, and such a decrease occurred in a higher number of patients on esketamine than placebo during the short-term trials (Table 4).

healthy subjects = experiment: Cardiac electrophysiology (QTc) study; type: in vivo, human
Experimental: The effect of SPRAVATO (84 mg nasal spray and 0.8 mg/kg esketamine intravenously infused over 40 minutes) on the QTc interval was evaluated in a randomized, double-blind, placebo-, and positive-controlled (moxifloxacin 400 mg), 4-period, crossover study in 60 healthy subjects.

rat = experiment: 2-year rat carcinogenicity study; type: in vivo; conditions: once-daily intranasal 4.5, 15 and 45 mg/kg/day; 2 years
[4] = Fertility study in male and female rats; type: in vivo, rat; conditions: both sexes, rat, in vivo, inhaled or intranasal; read-out: NOAEL for mating and fertility
Experimental: (§1) The No Observed Adverse Effect Level (NOAEL) for mating and fertility is 45 mg/kg/day which is 0.6 times the esketamine exposures at MRHD of 84 mg/day.

male and female rats = experiment: Fertility study in male and female rats; type: in vivo, rat
Experimental: as §1

subjects with TRD = conditions: post dose
Experimental: The Clinician Administered Dissociative States Scale (CADSS) was measured prior to the start of each dose, at 40 minutes, and 1.5 hours postdose.

[5] = test system: P-gp, BCRP, OATP1B1, OATP1B3, MATE1, MATE2-K, OCT2, OAT1, OAT3; experiment: Transporter substrate and inhibition studies; conditions: not told
[6] = Clinical pharmacokinetics of esketamine (label)
adult female rats [7] = experiment: Single-dose neuronal toxicity study (neuronal vacuolation), intranasal esketamine (label); conditions: rat, in vivo
adult female rats [8] = experiment: Second single dose neurotoxicity study (neuronal necrosis), intranasal esketamine (label); conditions: 200-gram rat
[9] = esketamine 84 mg minus placebo, ANCOVA LOCF
[10] = esketamine 84 mg, LOCF, ITT, N = 35
[11] = esketamine 84 mg, LOCF, ITT, N = 35, negative change = improvement
[12] = human, plasma, other: nasal spray

SMILES: CN[C@]1(c2ccccc2Cl)CCCCC1=O [esketamine, (S)-2-(2-chlorophenyl)-2-(methylamino)cyclohexanone]
- Proportion of subjects with sedation (post dose MOAA/S score of ≤3) [1]: < 4%
- MADRS: least-square mean difference from placebo ([2]; 84 mg, Day 1, 4-hours postdose, ANCOVA): −5.3 (2.10)
- MADRS total score, change to Day 1 (DB): 4 H, Diff. of LS Means (SE) [2, 9]: −5.3 (2.10)
- MADRS total score, change to Day 2 (DB), Diff. of LS Means (SE) [2, 9]: −7.2 (2.85)
- MADRS total score, change to End Point (DB), Diff. of LS Means (SE) [2, 9]: −4.5 (3.14)
- MADRS total score, Day 1 (DB): 4 H, Median (Range) [2, 10]: 23.0 (7; 48)
- MADRS total score, Day 2 (DB), Median (Range) [2, 10]: 18.0 (3; 42)
- MADRS total score, End Point (DB), Median (Range) [2, 10]: 8.0 (0; 44)
- MADRS total score, Change from Baseline to Day 1 (DB): 4 H, Median (Range) [2, 11]: −14.0 (−32; 1)
- MADRS total score, Change from Baseline to Day 2 (DB), Median (Range) [2, 11]: −19.0 (−41; 1)
- MADRS total score, Change from Baseline to End Point (DB), Median (Range) [2, 11]: −25.0 (−46; 13)
- MADRS total score, Baseline (DB), Median (Range) ([2]; esketamine 84 mg, predose Day 1, ITT, N = 35): 38.0 (27; 49)
- AUC-based safety margin compared with the maximum 84 mg clinical dose [3]: ~11 fold
- Cmax-based safety margin compared with the maximum 84 mg clinical dose [3]: approximately 17 fold
- Sedative effects typically resolved by (patients with TRD): ≤ 1.5 h
- Increase in heart rate (healthy subjects; 84 mg nasal spray and 0.8 mg/kg intravenously over 40 minutes): > 10 bpm
- QTc prolongation (healthy subjects; therapeutic dose): lack of clinically relevant QTc prolongation
- Incidence of tumors (rat): did not increase the incidence of tumors
- NOAEL [4]: 45 mg/kg/day
- Mean AUC exposure, multiple of the MRHD of 84 mg/day (male and female rats; 4.5 mg/kg/day intranasal): approximately 0.05 times
- Mean AUC exposure, multiple of the MRHD of 84 mg/day (male and female rats; 15 mg/kg/day intranasal): ~0.3 times
- Mean AUC exposure, multiple of the MRHD of 84 mg/day (male and female rats; 45 mg/kg/day intranasal): ~0.6 times
- Dissociative and perceptual change symptoms (CADSS) resolved by (subjects with TRD): ≤ 1.5 h
- Inhibition potential against CYPs and UGTs (CYPs and UGTs): did not show inhibition potential
- Inhibition of P-gp, BCRP, OATP1B1, OATP1B3, MATE1, MATE2-K, OCT2, OAT1 or OAT3 [5]: do not inhibit
- Substrate of P-gp, BCRP, OATP1B1 or OATP1B3 [5]: not a substrate
- Time to reach maximum plasma concentration ([6]; after the last nasal spray of a treatment session): 20 to 40 min
- Presence in human milk ([6]; human, in vivo): present in human milk
- bioavailability ([6]; human, plasma, inhaled or intranasal): ~48%
- clearance ([6]; human, plasma, iv): ~1480 mL/min
- Inter-subject variability, AUC∞ [6, 12]: 18% to 45
- Inter-subject variability, Cmax [6, 12]: 27% to 66
- Intra-subject variability, AUC∞ [6, 12]: ~10%
- Intra-subject variability, Cmax [6, 12]: approximately 15%
- Dose excreted as unchanged drug in urine ([6]; nasal): Less than 1%
- Accumulation in plasma ([6]; twice a week administration): No accumulation
- Safety margin to clinical exposure at the MRHD of 84 mg/day, AUC (adult female rats [7]): 1.8 times
- Safety margin to clinical exposure at the MRHD of 84 mg/day, Cmax (adult female rats [7]): 4.5 times
- Highest dose equivalent with no findings of neuronal necrosis (adult female rats [8]): 270 mg/kg
